“And” between values parts separate entries of the source, which are not always exact repeats. Identical values can stand only once.
Tested on: 777334-354-R2-J4-PDC tumor spheroids with HUVEC/MSC, viability
Assay: Anticancer human tumor 777334-354-R2-J4-PDC patient-derived pancreatic adenocarcinoma cell line growth inhibition [GQUAD]
Conditions: for viability, T/C: stronger effect = lower value; for IC50: curve of compound
Description: DNA G-quadruplex Stabilizer Agents in Combinations in Complex Spheroids
A high-throughput screen of multi-cell type tumor spheroids was designed to identify active combinations of DNA G-quadruplex stabilizer agents and targeted small molecules. Complex spheroids include a stromal component modeled by human endothelial cells (HUVEC) and fibroblasts modeled by human mesenchymal stem cells (MSCs). The concentration ranges selected for each drug and investigational agent were based upon clinically achievable concentrations if the clinical Cmax of the agent was known.
Compounds. The drugs and investigational agents: pidnarulex (CX-5461; NSC782164), APTO-253 (NSC789042), BRACO-19 (NSC847499), peposertib (NSC802822), ceralasertib (NSC780249), elimusertib (NSC800525), camonsertib (NSC841442), AZD-1390 (NSC803789), olaparib (NSC753686), talazoparib (NSC767125), ART-558 (NSC835418), sotorasib (NSC818433), MRTX-1133 (NSC836407), SN-38 (NSC673596), topotecan (NSC609699), etoposide (NSC141540), doxorubicin (NSC123127), gemcitabine (NSC613327), 5-fluorouracil (NSC19893), paclitaxel (NSC125973), vemurafenib (NSC761431), panobinostat (NSC761190), R-306465 (JNJ-16241199; NSC773264), adavosertib (NSC754352), TP-3654 (NSC805149), carboplatin (NSC241240), KSQ-4279 (NSC840948), and staurosporine (NSC755774) were obtained from the National Cancer Institute (NCI) Developmental Therapeutics Program Chemical Repository (34). The FDA-approved anticancer drug set is available from the NCI Developmental Therapeutics Program. […] The stock solutions were prepared in dimethyl sulfoxide (DMSO, Sigma-Aldrich, St. Louis, MO, cat. D2650) at 800-fold the tested concentration and stored at -70 degrees C prior to their use. All drugs and investigational agents were tested over a range starting from a high concentration at or near the clinical Cmax and decreasing in half-log increments. If the clinical Cmax for an agent had not been determined, the highest concentration tested was 10 microM.
2.3 Cell Culture. All cells were maintained in an incubator at 37 degrees C and 5% CO2 with 95% humidity. The PDC lines were cultured according to standard operating procedures established by the NCI PDMR. All PDCs were thawed and cultured in Matrigel-coated flasks prepared with a working solution of 1X Ham's F-12 nutrient mix, without supplementation (Invitrogen, cat. 11765054), 100 U/mL penicillin-streptomycin (Invitrogen, cat. 15140122), and 2.5% Matrigel (Corning Inc., cat. 354248) for the first three passages. The 857933-349-R-J2-PDC line was cultured in 6C/Colon 1B media, which includes advanced DMEM/F-12 (Thermo Fisher Scientific, cat. 12634028), 10 mM HEPES (Thermo Fisher Scientific, cat. 15630080), 1X GlutaMAX supplement (Thermo Fisher Scientific, cat. 35050061), 0.1 mg/mL primocin (InvivoGen, cat. ant-pm-2), 10% defined fetal bovine serum, heat inactivated (HyClone Laboratories Inc., cat. SH30070.03HI), 50% L-WRN conditioned media (ATCC, cat. CRL-3276), 1.25 mM N-Acetyl-L-cysteine (Sigma-Aldrich, cat. A9165), 10 mM nicotinamide (Sigma-Aldrich, cat. N0636), 1X B-27 supplement (Thermo Fisher Scientific, cat. 17504044), 1X N-2 supplement (Thermo Fisher Scientific, cat. 17502048), 10 microM Y-27632 dihydrochloride (Tocris Bioscience, cat. 1254), and 50 ng/mL human EGF recombinant protein (Thermo Fisher Scientific, cat. PHG0311). The 485176-168-R4-J1-PDC line was cultured in Panc media, which includes all 6C/Colon 1B media components plus 100 ng/mL human FGF-10 (Thermo Fisher Scientific, cat. 100-26), 500 nM SB-431542 (Selleckchem, cat. S1067), and gastrin (Tocris, cat. 3006).
[…]
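Also: spheroids exposed to compounds for 7 days before readout.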

`C=CCn1c(=O)c2cnc(Nc3ccc(N4CCN(C)CC4)cc3)nc2n1-c1cccc(C(C)(C)O)n1` was tested, and the viability, T/C (compound 0.0316 µM) was 93.8% and 101% and 99.7%, the viability, T/C (compound 0.1 µM) was 85.8% and 102% and 88% and the viability, T/C (compound 0.316 µM) was 81.1% and 84.7% and 74.9%. For the same compound, the viability, T/C (compound 1 µM) was 43.1% and 45.4% and 41.5%, the viability, T/C (compound 3.16 µM) was 35.6% and 37.4% and 39% and the viability, T/C (compound 10 µM) was 30.4% and 38.4% and 35.2%. The IC50 was 821 nM and 869 nM and 787 nM.

With `Cc1[nH]c2ccccc2c1CCNCc1ccc(/C=C/C(=O)NO)cc1` the viability, T/C (compound 0.000999 µM) was 99% and 100% (2×), the viability, T/C (compound 0.00316 µM) was 91.5% and 99.1% and 97.5% and the viability, T/C (compound 0.00999 µM) was 106% and 114% and 102%. For the same compound, the viability, T/C (compound 0.0316 µM) was 93.5% and 98.6% and 91.6%, the viability, T/C (compound 0.0999 µM) was 72.8% and 72.4% and 75% and the viability, T/C (compound 0.316 µM) was 32.1% and 29.1% and 35.9%. The IC50 was 190 nM and 181 nM and 208 nM.

With `COc1cc(C2c3cc4c(cc3C(OC3OC5COC(C)OC5C(O)C3O)C3COC(=O)C23)OCO4)cc(OC)c1O` (centres undefined) the viability, T/C (compound 0.0316 µM) was 94.6% and 85% and 95.3%, the viability, T/C (compound 0.1 µM) was 88.4% and 97.9% and 91.6% and the viability, T/C (compound 0.316 µM) was 88.8% and 89.8% and 94.8%. The viability, T/C (compound 1 µM) was 71.9% and 74.2% and 72.8%, the viability, T/C (compound 3.16 µM) was 69.3% and 64% and 61.6% and the viability, T/C (compound 10 µM) was 41.3% and 38.2% and 35.7%. The IC50 was 6820 nM and 5690 nM and 5030 nM.

With `CC[C@@]1(O)C(=O)OCc2c1cc1n(c2=O)Cc2cc3c(CN(C)C)c(O)ccc3nc2-1` the viability, T/C (compound 0.000999 µM) was 102% and 101% and 87.9%, the viability, T/C (compound 0.00316 µM) was 98.6% and 112% and 91.4% and the viability, T/C (compound 0.00999 µM) was 95.8% and 97.9% and 93.1%. The viability, T/C (compound 0.0316 µM) was 87.9% and 83.3% and 90.2%, the viability, T/C (compound 0.0999 µM) was 68.3% and 59.5% and 61.7% and the viability, T/C (compound 0.316 µM) was 39.7% and 35.4% and 42.7%. For the same compound, the IC50 was 209 nM and 154 nM and 203 nM.

`CCc1c2c(nc3ccc(O)cc13)-c1cc3c(c(=O)n1C2)COC(=O)[C@]3(O)CC` was tested, and the viability, T/C (compound 0.000999 µM) was 87.3% and 77.7% and 87.8%, the viability, T/C (compound 0.00316 µM) was 62.7% and 59.7% and 52.4% and the viability, T/C (compound 0.00999 µM) was 38% and 36% and 36.3%. The viability, T/C (compound 0.0316 µM) was 24% and 23.4% and 23.9%, the viability, T/C (compound 0.0999 µM) was 15.9% and 15.4% and 13.3% and the viability, T/C (compound 0.316 µM) was 8.77% and 9.22% and 10.1%. The IC50 was 5.78 nM and 5.06 nM and 4.18 nM.

`CC1COCCN1c1cc(-c2ccnn2C)c2ccnc(-c3ccn[nH]3)c2n1` (centres undefined) was tested, and the viability, T/C (compound 0.0316 µM) was 94.2% and 88.2% and 75%, the viability, T/C (compound 0.1 µM) was 73.7% and 75.3% and 83.1% and the viability, T/C (compound 0.316 µM) was 65.4% and 62.4% and 50.8%. The viability, T/C (compound 1 µM) was 47.7% and 49.3% and 49.1%, the viability, T/C (compound 3.16 µM) was 37.1% and 41.5% and 48.4% and the viability, T/C (compound 10 µM) was 26.8% and 33.3% and 28.8%. For the same compound, the IC50 was 901 nM and 1020 nM and 1110 nM.

`O=c1[nH]cc(F)c(=O)[nH]1` was tested, and the viability, T/C (compound 0.0316 µM) was 103% (2×) and 96.5%, the viability, T/C (compound 0.1 µM) was 103% and 97.9% and 98.6% and the viability, T/C (compound 0.316 µM) was 104% and 107% and 115%. The viability, T/C (compound 1 µM) was 75.3% and 73.9% and 78%, the viability, T/C (compound 3.16 µM) was 69.9% and 72.7% and 71.7% and the viability, T/C (compound 10 µM) was 63.2% and 65.2% and 59.8%. The IC50 was over 10000 nM.

Source: PubChem BioAssay AID2060499 (Molecular Pharmacology Branch, DTP, NCI, 2025)
